Source: patent US9758526B2, “Quinoline-substituted compound” (TAIHO PHARMACEUTICAL CO., LTD., priority 2013, dated 2017)

Tests used:
[1] = system: NCI-H1975 expressing EGFR (T790M/L858R); experiment: Growth inhibition, NCI-H1975 expressing EGFR (T790M/L858R); assay type: cell-based; settings: Homo sapiens, NCI-H1975, 72 h; cultured three days, CellTiter-Glo
Protocol: (§1) (1) A human […] lung cancer cell line NCI-H1975 expressing EGFR (T790M/L858R), (2) a human non-small cell lung cancer cell line HCC827 expressing EGFR (d746-750), and (3) a human epithelioid cancer cell line A431 expressing EGFR (WT) were each suspended in complete growth medium recommended by ATCC. The cell suspensions were seeded in each well of a 384-well flat microplate or a 96-well flat plate, and cultured in an incubator containing 5% carbon dioxide gas at 37° C. for one day. Each compound of the present invention was dissolved in DMSO, and serial dilutions of the test compound were prepared using DMSO (to a concentration 500 times the final concentration). The DMSO solution of the test compound or DMSO was diluted with complete growth medium, and the resulting solution was added to each well of the cell culture plate so that the final concentration of DMSO was 0.2%. Then, the cells were cultured in an incubator containing 5% carbon dioxide gas at 37° C. for three days. The number of cells was measured before the addition of the DMSO solution of the test compound, as well as after addition and culture by using a CellTiter-Glo Assay® (produced by Promega) according to a protocol recommended by Promega.
(§2) For each cell, the cell growth inhibition rates of the wells to which the test compounds at various concentrations were added were calculated by the following formula. Then, the obtained inhibition rates (%) at the respective concentrations were plotted for each test compound, and the GI50 value (nM), which is a test compound concentration at which the cell growth can be inhibited by 50%, was determined using XLfit curve-fitting software (IDBS). • Cell Growth Inhibition Rate (%)=(C−T)/(C−CO)×100 • T: Luminescence intensity of well cultured for three days after addition of the test compound solution • C: Luminescence intensity of well cultured for three days after addition of DMSO • C0: Luminescence intensity of well before addition of the test compound solution

[2] = system: A431 expressing EGFR (WT); experiment: Growth inhibition, A431 expressing EGFR (WT); assay type: cell-based; settings: Homo sapiens, A-431, 72 h; cultured three days, CellTiter-Glo
Protocol: as §1, §2

EGFR (T790M/L858R) = target: T1, EGFR (T790M/L858R) (Homo sapiens, UniProt P00533, L858R/T790M); experiment: EGFR (T790M/L858R) kinase inhibitory activity; assay type: biochemical; settings: for IC50: ATP 1 μM, 25° C. for 120 minutes
T1 construct: purchased Carna Biosciences, Inc
Protocol: The inhibitory activities of the compounds of the present invention against EGFR (T790M/L858R) kinase activity were measured.
(§3) Among the materials of the inhibitory activity measurement, the substrate peptide and the kinase protein were obtained as follows. A peptide with biotinylated N-terminus (biotin-EEPLYWSFPAKKK) was synthesized with reference to FL-Peptide 22, a reagent for LabChip® series of PerkinElmer, Inc. For the kinase protein, a purified recombinant human EGFR (T790M/L858R) protein of Carna Biosciences, Inc. was purchased.
(§4) The inhibitory activity measurement was performed as follows. The compounds of the present invention were individually dissolved in dimethyl sulfoxide (DMSO), and serial dilutions of these compounds were prepared using DMSO. Subsequently, a solution containing the substrate peptide (final concentration: 250 nM), magnesium chloride (final concentration: 10 mM), manganese chloride (final concentration: 10 mM), and ATP (final concentration: 1 μM) in a buffer solution for kinase reaction (Carna Biosciences, Inc.) was mixed with the dilutions of the compounds (final concentration of DMSO upon kinase reaction: 2.5%) or DMSO (final concentration: 2.5%). EGFR (T790M/L858R) protein was further added thereto, and the mixtures were incubated at 25° C. for 120 minutes to carry out a kinase reaction. EDTA was added thereto to a final concentration of 24 mM to thereby terminate the reaction. A phosphorylated thyrosine detection solution containing europium (Eu)-labeled anti-phosphorylated tyrosine antibody PT66 (PerkinElmer, Inc.) and SureLight APC-SA (PerkinElmer, Inc.) was added to the reaction mixtures, and the mixtures were allowed to stand at room temperature for 2 hours or more. For the background, a sample to which EDTA was added before addition of EGFR (T790M/L858R) protein was incubated at 25° C. for 120 minutes, using DMSO instead of the DMSO solution of the compound. The detection solution was also added to this sample, and the mixture was allowed to stand for 2 hours or more. Finally, for all of the test samples, the amount of fluorescence at the time of irradiation of excitation light having a wavelength of 337 nm was measured at dual wavelengths of 620 nm and 665 nm by PHERAstar FS (BMG LABTECH), and a ratio of the fluorescence amounts at the two wavelengths was obtained as data.
(§5) Based on the above rates, phosphorylation inhibition rates (%) were calculated for the samples to which various concentrations of the compound solutions were added. Finally, the obtained reaction inhibition rates (%) at the respective concentrations were plotted for each compound, and the IC50 value (nM), which is a compound concentration at which phosphorylation by EGFR (T790M/L858R) is inhibited by 50%, was determined using XLfit curve-fitting software (IDBS).

EGFR (WT) = target: T2, EGFR (WT) (Homo sapiens, UniProt P00533); experiment: EGFR (WT) kinase inhibitory activity; assay type: biochemical; settings: substrate peptide 500 nM
T2 construct: expressing a cytoplasmic domain of human EGFR (WT) with its N-terminus fused to a FLAG tag; FLAG (N); made in house; host or cells: insect Sf9 cells, baculovirus expression system
Protocol: as §3, §4, §5
The inhibitory activities of the compounds of the present invention against EGFR (WT) kinase activity were measured.
The materials, the measurement method, and the data analysis method were substantially the same as those shown in the above description regarding “Measurement of EGFR (T790M/L858R) Kinase Inhibitory Activity,” except that a kinase protein prepared by expressing a cytoplasmic domain of human EGFR (WT) with its N-terminus fused to a FLAG tag in insect Sf9 cells using a baculovirus expression system and then purifying it with anti-FLAG antibody agarose (Sigma-Aldrich) was used as the kinase protein, the final concentration of the substrate peptide was 500 nM, and the final concentration of ATP was […]. Finally, the IC50 value (nM) of each compound with respect to EGFR (WT) was determined by data analysis.

[3] = system: HCC827 expressing EGFR (d746-750); experiment: Growth inhibition, HCC827 expressing EGFR (d746-750); assay type: cell-based; settings: Homo sapiens, HCC827, 72 h; cultured three days, CellTiter-Glo
Protocol: as §1, §2

EGFR (d746-750/T790M) = target: T3, EGFR (d746-750/T790M) (Homo sapiens, UniProt P00533, DEL746-750/T790M); experiment: EGFR (d746-750/T790M) kinase inhibitory activity; assay type: biochemical; settings: ATP 1.5 μM
T3 construct: purchased Carna Biosciences, Inc
Protocol: as §3, §4, §5
The inhibitory activities of the compounds of the present invention against EGFR (d746-750/T790M) kinase activity were measured.
The materials, the measurement method, and the data analysis method were substantially the same as those shown in the above description regarding “Measurement of EGFR (T790M/L858R) Kinase Inhibitory Activity,” except that a purified recombinant human EGFR (d746-750/T790M) protein purchased from Carna Biosciences, Inc. was used as the kinase protein, and the measurement was performed with an ATP final concentration of 1.5 μM. Finally, the IC50 value (nM) of each compound with respect to EGFR (d746-750/T790M) was determined by data analysis.

EGFR (L858R) = target: T4, EGFR (L858R) (Homo sapiens, UniProt P00533, L858R); experiment: EGFR (L858R) kinase inhibitory activity; assay type: biochemical; settings: ATP 4 μM
T4 construct: purchased Carna Biosciences, Inc
Protocol: as §3, §4, §5
The inhibitory activities of the compounds of the present invention against EGFR (L858R) kinase activity were measured.
The materials, the measurement method, and the data analysis method were substantially the same as those shown in the above description regarding “Measurement of EGFR (T790M/L858R) Kinase Inhibitory Activity,” except that a purified recombinant human EGFR (L858R) protein purchased from Carna Biosciences, Inc. was used as the kinase protein, and the measurement was performed with ATP at a final concentration of 4 μM. Finally, the IC50 value (nM) of each compound with respect to EGFR (L858R) was determined by data analysis.

EGFR (d746-750) = target: T5, EGFR (d746-750) (Homo sapiens, UniProt P00533, DEL746-750); experiment: EGFR (d746-750) kinase inhibitory activity; assay type: biochemical; settings: ATP 5 μM, kinase reaction 90 minutes
T5 construct: purchased Carna Biosciences, Inc
Protocol: as §3, §4, §5
The inhibitory activities of the compounds of the present invention against EGFR (d746-750) kinase activity were measured.
The materials, the measurement method, and the data analysis method were substantially the same as those shown in the above description regarding “Measurement of EGFR (T790M/L858R) Kinase Inhibitory Activity,” except that a purified recombinant human EGFR (d746-750) protein purchased from Carna Biosciences, Inc. was used as the kinase protein, the measurement was performed with ATP at a final concentration of 5 μM, and the incubation for the kinase reaction was performed for 90 minutes. Finally, the IC50 value (nM) of each compound with respect to EGFR (d746-750) was determined by data analysis.

T2 sequence (P00533 669-1210 limits assumed): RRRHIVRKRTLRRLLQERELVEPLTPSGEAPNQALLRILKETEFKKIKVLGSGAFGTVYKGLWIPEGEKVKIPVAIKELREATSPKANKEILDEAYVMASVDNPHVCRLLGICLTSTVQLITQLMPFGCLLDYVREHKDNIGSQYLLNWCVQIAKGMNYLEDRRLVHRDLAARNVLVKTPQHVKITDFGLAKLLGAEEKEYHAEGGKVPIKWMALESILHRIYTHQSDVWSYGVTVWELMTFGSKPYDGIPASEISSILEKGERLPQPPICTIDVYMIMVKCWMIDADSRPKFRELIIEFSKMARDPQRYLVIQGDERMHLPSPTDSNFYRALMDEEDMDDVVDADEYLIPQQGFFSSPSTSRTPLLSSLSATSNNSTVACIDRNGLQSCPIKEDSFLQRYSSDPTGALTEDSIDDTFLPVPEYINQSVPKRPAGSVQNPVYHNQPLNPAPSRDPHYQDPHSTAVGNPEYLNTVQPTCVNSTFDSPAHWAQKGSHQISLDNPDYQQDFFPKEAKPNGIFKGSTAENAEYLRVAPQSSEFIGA
T3 sequence (P00533 with tags, fused parts or gaps DEL746-750/T790M limits assumed): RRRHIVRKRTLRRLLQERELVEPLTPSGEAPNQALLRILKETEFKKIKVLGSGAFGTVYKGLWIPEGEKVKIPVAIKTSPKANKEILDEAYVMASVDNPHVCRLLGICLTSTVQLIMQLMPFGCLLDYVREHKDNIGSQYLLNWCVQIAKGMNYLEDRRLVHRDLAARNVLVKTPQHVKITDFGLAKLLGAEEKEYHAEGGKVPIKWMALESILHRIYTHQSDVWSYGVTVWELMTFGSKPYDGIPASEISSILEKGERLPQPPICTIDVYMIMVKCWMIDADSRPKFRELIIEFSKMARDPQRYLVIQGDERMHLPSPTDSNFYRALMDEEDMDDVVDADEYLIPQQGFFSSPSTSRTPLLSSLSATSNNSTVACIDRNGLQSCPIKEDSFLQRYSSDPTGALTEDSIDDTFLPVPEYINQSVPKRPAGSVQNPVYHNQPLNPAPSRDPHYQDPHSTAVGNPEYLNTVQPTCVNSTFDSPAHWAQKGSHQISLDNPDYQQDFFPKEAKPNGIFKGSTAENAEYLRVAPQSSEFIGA
T4 sequence (P00533 25-1210 L858R): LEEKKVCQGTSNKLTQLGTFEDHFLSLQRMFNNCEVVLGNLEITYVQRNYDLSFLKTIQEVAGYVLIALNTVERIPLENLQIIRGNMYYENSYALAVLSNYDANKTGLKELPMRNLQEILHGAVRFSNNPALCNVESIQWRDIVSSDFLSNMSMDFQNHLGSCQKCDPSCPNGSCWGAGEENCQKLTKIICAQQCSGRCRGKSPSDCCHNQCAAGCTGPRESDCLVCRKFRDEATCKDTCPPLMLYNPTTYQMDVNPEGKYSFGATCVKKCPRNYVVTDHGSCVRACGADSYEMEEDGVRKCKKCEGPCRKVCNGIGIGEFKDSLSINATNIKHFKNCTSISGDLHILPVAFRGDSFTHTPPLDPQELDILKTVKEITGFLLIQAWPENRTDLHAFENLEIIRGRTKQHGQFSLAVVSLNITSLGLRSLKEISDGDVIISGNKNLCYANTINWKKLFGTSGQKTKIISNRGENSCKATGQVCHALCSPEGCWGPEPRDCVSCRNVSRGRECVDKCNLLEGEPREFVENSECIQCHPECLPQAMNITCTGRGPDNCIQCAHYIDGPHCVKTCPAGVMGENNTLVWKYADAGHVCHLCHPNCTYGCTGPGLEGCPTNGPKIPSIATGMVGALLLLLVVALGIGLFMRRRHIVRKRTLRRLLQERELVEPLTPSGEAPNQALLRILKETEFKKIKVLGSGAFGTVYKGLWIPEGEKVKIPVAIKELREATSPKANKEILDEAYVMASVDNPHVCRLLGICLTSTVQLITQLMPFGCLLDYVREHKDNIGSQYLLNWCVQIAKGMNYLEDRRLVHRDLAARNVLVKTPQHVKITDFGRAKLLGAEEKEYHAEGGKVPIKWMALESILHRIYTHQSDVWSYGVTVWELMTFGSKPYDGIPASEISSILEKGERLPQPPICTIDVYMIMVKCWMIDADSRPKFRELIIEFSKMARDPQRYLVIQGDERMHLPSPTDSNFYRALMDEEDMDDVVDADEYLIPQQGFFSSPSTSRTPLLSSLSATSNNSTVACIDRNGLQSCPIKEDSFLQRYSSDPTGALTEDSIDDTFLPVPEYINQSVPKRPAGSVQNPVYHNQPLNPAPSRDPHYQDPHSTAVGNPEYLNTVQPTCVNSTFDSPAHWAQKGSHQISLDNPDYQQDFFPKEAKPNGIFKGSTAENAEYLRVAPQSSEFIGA
T1 sequence (P00533 25-1210 T790M/L858R): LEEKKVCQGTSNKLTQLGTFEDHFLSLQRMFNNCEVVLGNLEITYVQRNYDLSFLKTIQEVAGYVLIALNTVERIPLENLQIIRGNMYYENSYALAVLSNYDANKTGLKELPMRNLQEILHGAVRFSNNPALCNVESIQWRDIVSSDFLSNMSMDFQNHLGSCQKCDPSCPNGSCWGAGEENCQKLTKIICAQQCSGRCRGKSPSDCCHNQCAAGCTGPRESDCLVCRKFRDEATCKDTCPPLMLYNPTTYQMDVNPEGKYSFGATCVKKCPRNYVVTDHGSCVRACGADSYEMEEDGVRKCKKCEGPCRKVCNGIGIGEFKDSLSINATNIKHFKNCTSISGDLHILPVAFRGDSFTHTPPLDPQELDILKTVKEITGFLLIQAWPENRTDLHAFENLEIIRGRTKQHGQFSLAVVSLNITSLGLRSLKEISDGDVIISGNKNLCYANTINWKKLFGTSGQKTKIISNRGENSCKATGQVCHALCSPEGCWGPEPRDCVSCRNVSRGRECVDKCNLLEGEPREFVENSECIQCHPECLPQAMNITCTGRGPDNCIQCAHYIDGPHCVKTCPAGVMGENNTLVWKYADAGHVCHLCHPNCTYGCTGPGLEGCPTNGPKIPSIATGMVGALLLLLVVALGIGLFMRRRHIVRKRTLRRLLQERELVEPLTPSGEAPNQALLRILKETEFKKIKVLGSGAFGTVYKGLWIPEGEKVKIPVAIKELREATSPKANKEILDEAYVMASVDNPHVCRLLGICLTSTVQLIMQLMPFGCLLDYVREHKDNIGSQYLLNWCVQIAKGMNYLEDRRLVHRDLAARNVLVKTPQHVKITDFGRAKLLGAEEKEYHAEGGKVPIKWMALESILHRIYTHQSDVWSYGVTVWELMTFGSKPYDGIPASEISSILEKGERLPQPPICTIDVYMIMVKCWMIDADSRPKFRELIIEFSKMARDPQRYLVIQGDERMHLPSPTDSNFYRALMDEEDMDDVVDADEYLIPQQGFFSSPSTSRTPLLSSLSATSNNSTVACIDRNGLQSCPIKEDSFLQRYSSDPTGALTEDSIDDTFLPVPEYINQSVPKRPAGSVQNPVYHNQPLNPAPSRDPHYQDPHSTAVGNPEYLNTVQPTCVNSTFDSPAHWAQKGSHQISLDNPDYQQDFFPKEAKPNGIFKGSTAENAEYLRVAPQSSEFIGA
T5 sequence (P00533 with tags, fused parts or gaps DEL746-750 limits assumed): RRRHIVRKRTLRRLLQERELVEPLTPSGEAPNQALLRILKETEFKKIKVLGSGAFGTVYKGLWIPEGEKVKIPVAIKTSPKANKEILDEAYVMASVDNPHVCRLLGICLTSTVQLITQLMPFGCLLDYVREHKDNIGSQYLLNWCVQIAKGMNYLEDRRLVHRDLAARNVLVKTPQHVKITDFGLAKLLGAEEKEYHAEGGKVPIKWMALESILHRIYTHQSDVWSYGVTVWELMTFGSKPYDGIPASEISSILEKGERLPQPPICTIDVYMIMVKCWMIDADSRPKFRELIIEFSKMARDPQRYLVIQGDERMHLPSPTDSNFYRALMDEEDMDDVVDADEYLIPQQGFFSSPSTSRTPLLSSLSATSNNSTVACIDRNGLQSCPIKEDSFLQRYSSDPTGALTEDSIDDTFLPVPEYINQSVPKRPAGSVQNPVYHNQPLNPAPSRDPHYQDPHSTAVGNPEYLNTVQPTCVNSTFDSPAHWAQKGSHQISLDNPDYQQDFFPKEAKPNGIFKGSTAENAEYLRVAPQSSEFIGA

| GI50 [1] [nM] | GI50 [2] [nM] | IC50 (EGFR (T790M/L858R)) [nM] | IC50 (EGFR (WT)) [nM] | GI50 [3] [nM] | IC50 (EGFR (d746-750/T790M)) [nM] | IC50 (EGFR (L858R)) [nM] | IC50 (EGFR (d746-750)) [nM] | inhibitory activity against EGFR kinases (in words) (EGFR (T790M/L858R); summary for EGFR (L858R), (d746-750), (T790M/L858R), (d746-750/T790M), for the comparative compound all EGFR kinases tested) | SMILES |
| --- | --- | --- | --- | --- | --- | --- | --- | --- | --- |
| 560 | > 10000 | 6.1 | 110 | 16 | 1.8 | 15 | 7.6 |  | C=C1c2c(-c3cnc4ccccc4c3)c3c(N)ncnc3n2C[C@H]1NC(=O)C=CC (mixture of isomers) [Example 3, (S)—N-(4-amino-6-methylene-5-(quinolin-3-yl)-7,8-dihydro-6H -pyrimido[5,4-b]pyrrolizin-7-yl)but-2-enamide] |
|  |  |  |  |  |  |  |  | almost no inhibitory activity | Nc1ncnc2c1c(-c1cccc(NC(=O)c3ccccc3)c1)c1n2CCCC1 [Comparative Example 1, N-(3-(4-amino-6,7,8,9-tetrahydropyrimido[5,4-b]indolizin-5-yl)phenyl)benzamide, reference compound] |
| 9 | 370 | < 0.5 | 0.7 | 1.9 | < 0.15 | < 0.5 | < 0.15 |  | C=CC(=O)N[C@@H]1Cn2c(c(-c3cnc4ccccc4c3)c3c(N)ncnc32)C1=C [Example 1, (S)—N-(4-amino-6-methylene-5-(quinolin-3-yl)-7,8-dihydro-6H-pyrimido[5,4-b]pyrrolizin-7-yl)acrylamide] |
| 4200 | > 10000 | 77 | 1400 | 780 | 30 | 230 | 78 |  | C=C(C)C(=O)N[C@@H]1Cn2c(c(-c3cnc4ccccc4c3)c3c(N)ncnc32)C1=C [Example 2, (S)—N-(4-amino-6-methylene-5-(quinolin-3-yl)-7,8-dihydro-6H -pyrimido[5,4-b]pyrrolizin-7-yl)methacrylamide] |
| 2500 | > 10000 | 36 |  | 260 | 11 | 100 | 59 |  | C=CC(=O)N[C@H]1Cn2c(c(-c3cnc4ccccc4c3)c3c(N)ncnc32)C1=C [Example 25, (R)—N-(4-amino-6-methylene-5-(quinolin-3-yl)-7,8-dihydro-6H-pyrimido[5,4-b]pyrrolizin-7-yl)acrylamide] |
| 150 | 4700 | 1 |  | 18.4 | 0.31 | 1.7 | 1.1 |  | C=CC(=O)N(C)[C@@H]1Cn2c(c(-c3cnc4ccccc4c3)c3c(N)ncnc32)C1=C [Example 26, (S)—N-(4-amino-6-methylene-5-(quinolin-3-yl)-7,8-dihydro-6H-pyrimido[5,4-b]pyrrolizin-7-yl)-N-methylacrylamide] |
| 110 | 1000 | 0.34 |  | 15 | 0.25 | 0.35 | 0.38 |  | C=CC(=O)N[C@H]1C=Cc2c(-c3cnc4ccccc4c3)c3c(N)ncnc3n2C1 [Example 27, (S)—N-(4-amino-5-(quinolin-3-yl)-8,9-dihydropyrimido[5,4-b]indolizin-8-yl)acrylamide] |
| 48 | 1200 | 0.3 |  | 14 | < 0.5 | 0.49 | 0.27 |  | C=CC(=O)N[C@H]1C=Cc2c(-c3cnc4ccccc4c3)c3c(N)ncnc3n2CC1 [Example 28, (R)—N-(4-amino-5-(quinolin-3-yl)-9,10-dihydro-8H-pyrimido[5′,4′:4,5]pyrrolo[1,2-a]azepin-8-yl)acrylamide] |
| 1600 | > 10000 | 14 |  | 89 | 8.4 | 19 | 21 |  | C=CC(=O)N[C@H]1CC(C)c2c(-c3cnc4ccccc4c3)c3c(N)ncnc3n2C1 (stereo partly drawn) [Example 29] |
